The structures appear in SMILES notation.

For experiment [1], the system named is MGC803 (human gastric carcinoma cells). The experiment is classed as cell-based. The conditions noted are these: 72 h. The source says:
(§1) A part of the compounds of the examples of the present disclosure were subjected to a tumor cell proliferation inhibition test by using an MTT method (e.g. Pharmacological Research Method of New Drug, 2007: 242-243, edited by Lu Qiujun).
(§2) A cell strain was selected from KYSE-150 (human esophageal squamous carcinoma cells), MGC803 (human gastric carcinoma cells), and SHG44 (human glioma cells), and frozen and passaged by a pharmacological laboratory of Shanghai Institute of Pharmaceutical Industry. A culture solution was DMEM+10% FBS+double antibody.
(§3) In-vitro activity test: 100 μL of a cell suspension at a concentration of 4-5×10^4/mL was added to each well of a 96-well plate, and placed in a 5% CO2 incubator at 37° C. After 24 h, a sample solution was added at 10 μL/well, double duplicate wells were set, and a reaction was performed at 37° C. with 5% CO2 for 72 h. 20 μL of 5 mg/ml of an MTT solution was added into each well and reacted for 4 h, a dissolving solution was added at 100 μL/well, the mixture was placed in an incubator, and after dissolution, an OD value at 570 nm was measured with a full-wavelength multifunctional microplate reader. An inhibition rate (IR) and a median inhibitory concentration (IC50) were calculated by using an Excel software.
(§4) The inhibition rate (IR %) of the drug on cell growth was calculated according to the following equation: […]

In experiment [2] the test system is SHG44 (human glioma cells). The experiment is classed as cell-based. The note with it: 72 h.
Text: as §1, §2, §3, §4

Regarding `COc1cc(C(=O)NCCOCCOCCOCCOCCC(=O)N[C@@H](C(=O)N[C@@H](CCCNC(N)=O)C(=O)Nc2ccc(COC(=O)N3CCN(C(=O)O[C@H]4CC[C@@]5(C)[C@H](CC[C@@H]6[C@@H]5[C@H](O)C(=O)[C@]5(C)[C@@H](c7ccc(=O)oc7)CC[C@]65O)C4)CC3)cc2)C(C)C)ccc1NC(=O)[C@@H]1N[C@@H](CC(C)(C)C)[C@](C#N)(c2ccc(Cl)cc2F)[C@H]1c1cccc(Cl)c1F` [Compound I-1], the values for the IC50 in experiment [1] and in experiment [2] were 9 nM and 3 nM, respectively.

Source of the values: patent US20240024494A1, “SMALL-MOLECULE CONJUGATE AND USE THEREOF” (SHANGHAI MEWSGEN BIOTECHNOLOGY CO., LTD, priority 2020, published 2024).
